Results on 27 molecules are retold here after US5066658A, “Substituted hydroxyureas” (Ortho Pharmaceutical Corporation, priority 1990, dated 1991).

Each structure is given as a SMILES string.

One test deals with T1, 5-lipoxygenase (Rattus norvegicus, UniProt P12527).
T1 construct: The cell-free homogenate was prepared by sonication of the cells followed by centrifugation at 40,000 xg; endogenous in cells; host or cells: RBL-1 (rat basophilic leukemia) cells, 40,000 xg supernatant of the sonicate
T1 sequence (P12527 1-673): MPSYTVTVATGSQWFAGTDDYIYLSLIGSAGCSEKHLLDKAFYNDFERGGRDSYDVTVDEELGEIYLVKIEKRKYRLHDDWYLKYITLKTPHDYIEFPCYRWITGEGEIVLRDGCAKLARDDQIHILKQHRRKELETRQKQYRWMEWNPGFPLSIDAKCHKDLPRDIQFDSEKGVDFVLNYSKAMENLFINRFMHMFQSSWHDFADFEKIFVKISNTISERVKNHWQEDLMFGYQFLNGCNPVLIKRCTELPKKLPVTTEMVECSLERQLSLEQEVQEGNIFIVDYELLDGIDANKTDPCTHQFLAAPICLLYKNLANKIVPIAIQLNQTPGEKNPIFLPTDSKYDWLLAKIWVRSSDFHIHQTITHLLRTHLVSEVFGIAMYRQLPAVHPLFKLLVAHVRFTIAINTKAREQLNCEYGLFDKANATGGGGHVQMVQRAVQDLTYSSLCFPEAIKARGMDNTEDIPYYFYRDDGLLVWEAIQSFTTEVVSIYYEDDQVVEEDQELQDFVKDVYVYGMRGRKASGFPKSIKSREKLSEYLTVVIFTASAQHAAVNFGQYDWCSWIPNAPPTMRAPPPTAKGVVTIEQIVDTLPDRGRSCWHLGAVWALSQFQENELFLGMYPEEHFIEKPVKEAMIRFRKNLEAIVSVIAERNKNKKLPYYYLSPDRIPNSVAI
In words: Inhibition of 5-lipoxygenase in cell-free homogenate of rat basophilic leukemia (RBL-1) cells. The format is biochemical. The settings on record: 3 μM; RBL-1 cell-free homogenate; read-out: Inhibition of 5-Lipoxygenase, % Inh. @ 3 μM. On the procedure:
The inhibition of 5-lipoxygenase was tested in a cell-free homogenate by the procedure of B. Jakschik et al., Biochem.Biophys.Res.Comm. 95, 103 (1980). Basically, rat basophilic leukemia cells (RBL-1 cells) were maintained in culture in a suitable medium, and were collected by centrifugation prior to assay. The cell-free homogenate was prepared by sonication of the cells followed by centrifugation at 40,000 xg. The CaCl2 dependent production of lipoxygenase products from ^14 C-arachidonic acid in the 40,000 xg supernatant was monitored in the presence of buffer (or other vehicle) or drug. Products were isolated by acidification and extraction, followed by thin layer chromatography. Radioactive areas corresponding to the authentic lipoxygenase products were quantitated by liquid scintillation counting. Data was reported as the IC50, the concentration causing 50% inhibition of the generation of lipoxygenase products. The results are shown it Table I as the percent inhibition at 3 μM or the amount of compound necessary to cause 50% inhibition.

In test [1] the test system is Arachidonate-Induced Bronchospasm (lipoxygenase). The experiment in a line: Pulmonary Mechanics Assay: arachidonate-induced bronchospasm with indomethacin (SRS-A response, indicative of lipoxygenase inhibition). The format is in vivo, male Hartley guinea pigs. The settings on record: Cavia porcellus, guinea pig; for inhibition in vivo at 50 mg/kg: ID dosing, read-out: Inhibition of Arachidonate-Induced Bronchospasm (ID Dosing), % Inh. with Indomethacin; for inhibition in vivo at 15 mg/kg: IV dosing, read-out: Inhibition of Arachidonate-Induced Bronchospasm (IV Dosing), % Inh. with Indomethacin. On the procedure:
(§1) The bronchodilating activity of the compounds was tested in a pulmonary mechanics assay. Basically, male Hartley guinea pigs (about 400-500 g) were anesthetized with urethane (2 g/kg, i.p.) and placed in a whole body Plethysmograph. Cannulations of a jugular vein and carotid artery were performed for compound administration and monitoring blood pressure, respectively. The trachea was cannulated for respiration at a constate volume via a miniature starling pump. A Validyne differential pressure transducer (±20 cm H2 O) sensed transpleural pressure via a 15 gauge needle inserted into the pleural cavity and a sidearm from the tracheal cannula. Tidal volume was sensed by another Validyne differential pressure transducer (±2 cm H2 O) from pressure changes inside the plethysmograph. An on-line Buxco pulmonary mechanics computer calculated air flow, dynamic lung compliance and lung resistance. The values were recorded on a print-out.
(§2) The guinea pigs were pretreated with succinyl choline (1.2 mg/kg, i.v.) to arrest spontaneous respiration. A control challenge of arachidonic acid (0.5-1.0 mg/kg, i.v.) was administered, and the animals were then dosed with the test compound by various routes. At least 10 minutes were allowed to expire between arachidonic acid challenges. A second challenge was given and compared to the control response. This comparison was indicative of cyclooxygenase inhibition. Indomethacin (10 mg/kg, i.v.) was administered immediately after the second challenge. A third challenge of a higher dose of arachidonic acid (5-10 mg/kg, i.v.) was given. This response was induced by SRS-A and compared to the responses elicited by a separate control group of animals. Activity was indicative of lipoxygenase inhibition. Propranolol (0.005 mg/kg. i.v.) may be given prior to the third challenge to enhance the response to SRS-A.
(§3) Bronchoconstriction induced by arachidonic acid with or without indomethacin was expressed as maximum percent change in dynamic lung compliance (Cdyn) and maximum percent increase in lung resistance (RL). Each guinea pig served as its own control for cyclooxygenase evaluation. The results are shown in Table I and are expressed as the percent inhibition of control.

Test [2] has as its system Arachidonate-Induced Bronchospasm (cyclooxygenase). The experiment in a line: Pulmonary Mechanics Assay: arachidonate-induced bronchospasm without indomethacin (indicative of cyclooxygenase inhibition). The format is in vivo, male Hartley guinea pigs. The settings on record: Cavia porcellus, guinea pig; for inhibition in vivo at 50 mg/kg: ID dosing, read-out: Inhibition of Arachidonate-Induced Bronchospasm (ID Dosing), % Inh. without Indomethacin; for inhibition in vivo at 15 mg/kg: IV dosing, read-out: Inhibition of Arachidonate-Induced Bronchospasm (IV Dosing), % Inh. without Indomethacin. On the procedure:
as §1, §2, §3

Usually inhibition stands for the share of the control response that was lost under treatment. Take `COc1cc(CCNC(=O)N(C)O)ccc1OCc1ccccc1` [Example 68, N-[2-(4-Benzyloxy-3-methoxyphenyl)ethyl]-N'-hydroxy-N'-methylurea]: the inhibition at 3 µM at 5-lipoxygenase is 69%. The inhibition in vivo at 50 mg/kg was 28% in test [1] and under 20% in test [2]. As for `CCCCC/C=C\C/C=C\C/C=C\C/C=C\CCCNC(=O)N(C)O` [Example 22, N-(4,7,10,13-Nonadecatetraenyl)-N'-methyl-N'-hydroxyurea], the inhibition at 3 µM on 5-lipoxygenase stood at 71%.

Regarding `COc1ccc(CCNC(=O)N(C)O)c(OC)c1` [Example 49, N-[2-(2,4-Dimethoxyphenyl)ethyl]-N'-hydroxy-N'-methylurea], at 5-lipoxygenase, the inhibition at 3 µM amounted to 99%. Moreover, the inhibition in vivo at 15 mg/kg is 67% in test [1] and 39% in test [2]. Regarding `CN(O)C(=O)NCCCCCOc1ccc(-c2ccccc2)cc1` [Example 36, N-[5-([l,l'Biphenyl]-4-yloxy)pentyl]N'-hydroxy-N'-methylurea], the inhibition at 3 µM on 5-lipoxygenase stood at 67%. Further, the inhibition in vivo at 50 mg/kg in test [1] is 31%; in test [2], under 20%. With `COc1ccc(CCNC(=O)N(O)C(C)C)cc1OC` [Example 41, N-[2-(3,4-Dimethoxyphenyl)ethyl]-N'-hydroxy-N'-(1-methylethyl)urea], the inhibition at 3 µM at 5-lipoxygenase turned out to be 95%. Further, in test [1], the inhibition in vivo at 50 mg/kg stood at 30% and the inhibition in vivo at 15 mg/kg was 70%. Besides, in test [2], the inhibition in vivo at 50 mg/kg was under 20% and the inhibition in vivo at 15 mg/kg amounted to 42%.

For the molecule `COc1ccc(CCNC(=O)N(C)O)cc1O` [Example 71, N-[2-(3-Hydroxy-4-methoxyphenyl)ethyl]-N'-hydroxy-N'-methylurea], the inhibition at 3 µM on 5-lipoxygenase came to 5%. Further, the values for the inhibition in vivo at 50 mg/kg in test [1] and in test [2] were under 20% and 77%, respectively. In the case of `COc1cc2c(cc1OC)C(CNC(=O)N(C)O)CC2` (centres unmarked) [Example 60, N-[(5,6-Dimethoxyindan-1-yl)methyl]-N'-hydroxy-N'-methylurea], on 5-lipoxygenase, the inhibition at 3 µM amounted to 51%. The inhibition in vivo at 15 mg/kg was 67% in test [1] and 48% in test [2]. As for `COc1ccc([C@@H]2C[C@H]2NC(=O)N(C)O)cc1OC` (relative stereo) [Example 66, N-[Trans-2-(3,4-dimethoxyphenyl)cyclopropyl]-N'-hydroxy-N'-methylurea], the inhibition at 3 µM on 5-lipoxygenase amounted to 28%. Besides, the inhibition in vivo at 50 mg/kg was determined as 45% in test [1] and 43% in test [2]. The inhibition in vivo at 15 mg/kg in test [1] worked out at 90%; in test [2] it was 61%. On to `CN(O)C(=O)NCCCCCCOc1ccc(-c2ccccc2)cc1` [Example 37, N-[6-([1,1'-Biphenyl]-4-yloxy)hexyl]N'hydroxy-N'-methylurea], for which, on 5-lipoxygenase, the inhibition at 3 µM was found to be 65%. Moreover, the inhibition in vivo at 50 mg/kg is -11% in test [1] and -33% in test [2]. For the molecule `COc1ccc(CCN(CC(C)C)C(=O)N(C)O)cc1OC` [Example 64, N-[2-(3,4-Dimethoxyphenyl)ethyl]-N'-hydroxy-N'-methyl-N-(2-methylpropyl)urea], the inhibition at 3 µM on 5-lipoxygenase amounted to 33%. Same read-out and setting: in the case of `CCCCCCN(O)C(=O)N(C)C` [Example 10, N,N-Dimethyl-N'-hexyl-N'-hydroxyurea] it was 100%. Take `CN(O)C(=O)N1CCC(C(c2ccccc2)c2ccccc2)CC1` [Example 75, 4-(Diphenylmethyl)-N-hydroxy-N-methylpiperidine-1-carboxamide]: at 5-lipoxygenase, the inhibition at 3 µM turned out to be 44%. Same read-out and setting: in the case of `COc1cccc(C2CCCN(C(=O)N(C)O)C2)c1` (centres unmarked) [Example 73, N-Hydroxy-3-(3-methoxyphenyl)-N-methylpiperidine-1-carboxamide] it was 46%; in that of `COc1ccc(CCN(C(=O)N(C)O)c2ccc(Cl)cc2)cc1OC` [Example 67, N-[2-(3,4-Dimethyloxyphenyl)ethyl]-N-(4-chlorophenyl)-N'-methyl-N'-hydroxyurea], 48%; in that of `COc1ccc(C2C3CCC(C3)C2NC(=O)N(C)O)cc1OC` (stereo not drawn) [Example 59, N-[trans-3-(3,4-Dimethoxyphenyl)bicyclo[2.2.1]-heptan-2-yl]-N '-hydroxy-N'-methylurea], 39%. In the case of `CCCCCCCCCCC1CN(C)C(=O)N(O)C1` (centres unmarked) [Example 29, 5-Decyl-1-hydroxy-3-methyl-3,4,5,6-tetrahydro-lH-pyrimidin-2-one], the inhibition at 3 µM at 5-lipoxygenase is 30%. Still for that read-out and setting: in the case of `COc1ccc(OC)c(CCNC(=O)N(C)O)c1` [Example 47, N-[2-(2,5-Dimethoxyphenyl)ethyl]-N'-hydroxy-N'-methylurea] it was 56%. On the same count and under the same terms, the result for `C=CCCCCCCCCNC(=O)N(C)O` [Example 18, N-(9-Decenyl)-N'-methyl-N'-hydroxyurea] reads 94%; that for `CN(O)C(=O)NCCc1ccc2c(c1)OCCO2` [Example 46, N-[2-(Benzo-1,4-dioxan-6-yl)ethyl]-N'-hydroxy-N'-methylurea], 42%; that for `COc1ccc(CNC(=O)N(C)O)cc1OC` [Example 42, N-[(3,4-Dimethoxyphenyl)methyl]-N'-hydroxy-N'-methylurea], 28%. On the same count and under the same terms, in the case of `COc1ccc(CC(C)NC(=O)N(C)O)cc1OC` (centres unmarked) [Example 54, N-[2-(3,4-Dimethoxyphenyl)-1-methylethyl]-N'-hydroxy-N'-methylurea] it was 8%; in that of `COc1cc2c(cc1OC)CC(NC(=O)N(C)O)C2` [Example 57, N-(5,6-Dimethoxyindan-2-yl)-N'-hydroxy-N'-methylurea], 55%; in that of `CN(O)C(=O)NCCc1cccc(Oc2ccccc2)c1` [Example 76, N-Hydroxy-N-methyl-N'-[2-(3-phenoxyphenyl)ethyl]urea], 66%. `C=CCCCCCCCCC(O)CNC(=O)N(C)O` (centres unmarked) [Example 21, N-(2-Hydroxy-11-dodecenyl)-N'-methyl-N'-hydroxyurea]: the inhibition at 3 µM on 5-lipoxygenase is 22%. On the same count and under the same terms, in the case of `COc1cc(CCNC(=O)N(C)O)cc(OC)c1OC` [Example 45, N-[2-(3,4,5-Trimethoxyphenyl)ethyl]-N'-hydroxy-N'-methylurea] it was 36%; in that of `CCOC(=O)CCCN(O)C(=O)NCCc1ccc(OC)c(OC)c1` [Example 74, N-[2-(3,4-Dimethoxyphenyl)ethyl]-N'-[3-(ethoxycarbonyl)propyl]-N'-hydroxyurea], 42%. Turning to `COc1cc(CCNC(=O)N(C)O)cc(OC)c1` [Example 48, N-[2-(3,5-Dimethoxyphenyl)ethyl]-N'-hydroxy-N'-methylurea], the inhibition at 3 µM on 5-lipoxygenase came to 42%.
